Laboratory results taken from patent US7915293B2, “Ubiquitin ligase inhibitors” (Rigel Pharmaceuticals, Inc., priority 2003, dated 2011).

Experiments:
Parameters in all cases: key: “+” indicates that the compound exibits inhibitory activity; “−” indicates that low or no inhibitory activity was observed
HeLa cells [1] = assay: Cell proliferation assay, photographic image analysis of proliferation, apoptosis and death (PAD assay), HeLa; assay type: cell-based; details: 6 concentrations tested
Outline: (§1)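 Cells grown in RPMI with 5% FBS (2,000/well) and dosed 24 h after plating with 6.3-fold dilutions in duplicate (master plate 500× final, top 10 mM stock). After 48 h at 37 °C, cells formamide-fixed and DAPI-stained. Image analysis counted live, apoptotic and dead cells.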

A549 cells [2] = assay: Cell proliferation assay, photographic image analysis of proliferation, apoptosis and death (PAD assay), A549; assay type: cell-based; details: 6 concentrations tested
Outline: as §1

HCT116 cells = assay: Cell proliferation assay, photographic image analysis of proliferation, apoptosis and death (PAD assay), HCT116; assay type: cell-based; details: 6 concentrations tested
Procedure: (§2) A549 (ATCC# CCL-185), HeLa (ATCC# CCL-2), HCT116 (ATCC# CCL-247), and H1299 (ATCC# CRL-5803) cells were maintained in T175 flasks following the ATCC recommended media and handling procedures. Flasks reaching approximately 70% confluency were trypsinized and resuspended in RPMI media (Cell-Gro catalog number 10-040-CM) modified to contain 5% FBS, 100 ug/mlPen/Strep (Cell-Gro catalog number 30-002-CL), and 0.3 mg/ml L-Glutamine (Cell-Gro catalog number 25-003-CL). A 20,000 cells/ml solution was made for plating. Cells were plated in black Packard 96 well plates by placing 100 μl per well (2,000 cells per well).
(§3) Compounds and additional media were added 24 hours after cell plating. A compound master plate was created with concentrations 500 times greater than the final concentration added to the cells. All compound testing was done in duplicate using 6.3 fold dilutions starting with 10 mM. All outside wells (and 4 internal wells) were DMSO controls. Taxol and at least one additional control were run on all plates. Three microliters of the compound master plate were added to deep well blocks containing 750 μl of RPMI media. One hundred microliters were transferred from the compound/media deep well blocks to the plated cells resulting in a 500 fold dilution of the compounds. Cells were grown at 37° C., 5% CO2 for 48 hours.
(§4) Cells to be analyzed by photography were fixed and stained. One hundred microliters of media were removed and 100 μl of 9.3% […] was added to each well. Plates were left on the benchtop for 45 minutes. A staining solution containing 1.55 μl of 1 mg/ml DAPI added to 18.75 ml PBS was warmed for 15 minutes at 37° C. The cells were aspirated prior to washing with 100 μl of PBS. Seventy microliters of PBS were aspirated and 170 μl of the DAPI solution were added to each well of fixed cells. Plates were left at room temperature for one hour then aspirated and washed twice with 100 μl of PBS. The stained cells were left at 4° C. for a minimum of 16 hours before photographic analysis with Array Scan II (Cellomics). Analysis of the photographic images to determine numbers of live cells (proliferation), apoptotic cells and dead cells, were according to the methods described in U.S. Provisional Patent Application Ser. No. 60/406,714, which incorporated herein in its entirety.

[3] = target: T1, E3 (His-APC11/APC2-"APC") (Homo sapiens, UniProt Q9NYG5+Q9UJX6); assay: Gel-based E3 ligase assay, auto-ubiquitination; assay type: biochemical
T1 sequence (Q9NYG5 whole entry): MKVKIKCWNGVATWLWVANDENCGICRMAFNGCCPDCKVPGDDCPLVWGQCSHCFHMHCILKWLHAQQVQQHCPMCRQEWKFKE
T1 sequence (Q9UJX6 whole entry): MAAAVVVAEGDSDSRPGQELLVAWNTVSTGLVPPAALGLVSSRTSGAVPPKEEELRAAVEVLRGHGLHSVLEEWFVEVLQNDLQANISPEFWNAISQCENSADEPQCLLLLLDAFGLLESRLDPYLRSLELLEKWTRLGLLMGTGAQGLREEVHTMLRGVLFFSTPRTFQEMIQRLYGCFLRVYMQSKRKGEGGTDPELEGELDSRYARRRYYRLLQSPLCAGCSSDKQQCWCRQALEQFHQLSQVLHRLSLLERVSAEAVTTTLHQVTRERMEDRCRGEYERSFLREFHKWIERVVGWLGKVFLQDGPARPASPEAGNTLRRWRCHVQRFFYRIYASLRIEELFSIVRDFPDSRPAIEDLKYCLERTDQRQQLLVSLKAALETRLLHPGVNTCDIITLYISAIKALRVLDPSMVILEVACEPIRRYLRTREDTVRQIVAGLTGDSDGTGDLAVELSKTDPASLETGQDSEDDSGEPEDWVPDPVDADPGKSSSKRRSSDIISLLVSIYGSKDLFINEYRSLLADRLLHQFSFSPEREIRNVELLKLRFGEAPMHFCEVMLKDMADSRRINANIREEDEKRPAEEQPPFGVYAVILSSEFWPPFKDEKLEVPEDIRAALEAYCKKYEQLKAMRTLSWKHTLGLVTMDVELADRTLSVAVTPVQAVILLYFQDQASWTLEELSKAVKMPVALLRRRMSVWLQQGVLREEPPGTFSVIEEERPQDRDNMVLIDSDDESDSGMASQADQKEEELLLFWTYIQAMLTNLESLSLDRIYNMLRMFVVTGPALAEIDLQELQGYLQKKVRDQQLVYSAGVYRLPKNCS
Procedure: E3 (His-APC11/APC2-“APC”) auto-ubiquitination was measured as described in U.S. patent application Ser. No. 09/826,312 (Publication No. U.S. Pat. No. 2,002,0042083-A1), which is incorporated herein in its entirety. Details of the protocol are described below. Activity in the presence of compound was determined relative to a parallel control in which only DMSO is added. The IC50 values were typically determined using 6 or 8 different concentrations of compound, although as few as 2 concentrations may be used to approximate the IC50 values.
Corning 96-well plates (Corning 3650) were blocked with 100 μl of Blocking Buffer for 1 hour at room temperature. The plates were washed 4 times with 225 μl of 1×PBS and 80 μl of the reaction buffer were added that contained 100 ng/well of Flag-ubiquitin. To this, 10 μl of the test compound diluted in DMSO were added. After the test compound was added, 10 μl of E1 (human), E2 (Ubch5c) and APC in Protein Buffer were added to obtain a final concentration of 5 ng/well of E1, 20 ng/well of E2 and 100 ng/well APC. The plates were shaken for 10 minutes and incubated at room temperature for 1 hour. After incubation, the reaction was stopped by adding 25 μl of loading buffer (non-reducing) per well and the plates were heated at 95° C. for 5 minutes. An aliquot of each well was run on a 10% NugePage Gel and analyzed by Western Blot using the antibody mix and Lumino substrate described below. The luminescence was measured by using a BMG luminescence microplate reader.
To prepare the Blocking Buffer (1 liter; 1% Casein in 1×PBS), 10 grams of Casein (Hammersten Grade Casein from Gallard-Schlesinger Inc. #440203) were placed into 1 liter of 1×PBS, stirred on a hot plate and kept between 50-60° C. for an hour. The buffer was allowed to cool to room temperature and then filtered using a Buchner Funnel (Buchner filter funnel 83 mm 30310-109) and Whatman filter paper (Whatman Grade No. 1 Filter paper 28450-070). It was stored at 4° C. until used.
The reaction buffer consisted of 62.5 mM Tris pH 7.6 (Trizma Base—Sigma T-8524), 3 mM MgCl2 (Magnesium Chloride—Sigma M-2393), 1 mM DTT (Sigma D-9779), 2.5 mM ATP (Roche Boehringer Mann Corp. 635-316), 100 ng/well of Flag-ubiquitin, 0.1% BSA (Sigma A-7906), and 0.05% Tween-20 (Sigma P-7949).
The Protein Buffer consisted of 20 mM Tris pH 7.6, 10% glycerol (Sigma G-5516) and 1 mM DTT.
The antibody mix consisted of 0.25% BSA (Sigma A-7906) in 1×PBS, 1/50,000 anti-Flag (Sigma F-3165), 1/100,000 of anti-Mouse IgG-HRP (Jackson Immunoresearch #115-035-146).
The substrate mix consisted of SuperSignal Substrate from Pierce (catalog number 37070ZZ) and was prepared by mixing 100 ml of the peroxide solution, 100 ml of the enhancer solution and 100 ml of Millie water.

A549 cells [4] = assay: Non-photographic proliferation analysis (Promega Cell titer Aqueous), A549; assay type: cell-based; details: 6 concentrations tested
Outline: (§5)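 HeLa, A549 and HCT116 cells, 2,000 per well in RPMI with 5% FBS, were given compounds 24 h after plating as 6.3-fold duplicate dilutions from 10 mM stock, diluted 500-fold into the wells. After 48 h at 37° C, 5% CO2, Cell titer Aqueous reagent was added for 45 min and absorbance read at 490 nm.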

HeLa cells [5] = assay: Non-photographic proliferation analysis (Promega Cell titer Aqueous), HeLa; assay type: cell-based; details: 6 concentrations tested
Outline: as §5

[6] = target: T1, E3 (His-APC11/APC2-"APC"); assay: Plate-based E3 ligase assay (APC FLAG), auto-ubiquitination; assay type: biochemical; details: 8 concentrations tested
Outline: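 His-APC11/APC2 auto-ubiquitination was run in casein-blocked nickel plates for 1 h at room temperature, with E1 at 5 ng/well, UbcH5c at 20 ng/well and APC at 100 ng/well. Buffer was 62.5 mM Tris pH 7.6, 3 mM MgCl2, 1 mM DTT, 2.5 mM ATP and Flag-ubiquitin at 100 ng/well. Detection used anti-Flag/HRP chemiluminescence, and IC50 was typically from 6 or 8 concentrations versus a DMSO control.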

H1299 cells = assay: Cell proliferation assay, photographic image analysis of proliferation, apoptosis and death (PAD assay), H1299; assay type: cell-based; details: 6 concentrations tested
Procedure: as §2, §3, §4

Compound	PAD Assay, HELA 6 pt (HeLa cells [1])	PAD Assay, A549 6 pt (A549 cells [2])	PAD Assay, HCT116 6 pt (HCT116 cells)	APC Flag (gel) [3]	Cell Titer-Aqueous, A549 6 pt (A549 cells [4])	Cell Titer-Aqueous, HELA 6 pt (HeLa cells [5])	APC Flag 8 pt [6]	PAD Assay, H1299 6 pt (H1299 cells)
CSc1ccccc1NS(=O)(=O)c1cc(Cl)c(Oc2ccc([N+](=O)[O-])cc2Cl)c(Cl)c1 [Example 191, 3,5-dichloro-4-(2-chloro-4-nitrophenoxy)-N-[2-(methylthio)phenyl]benzenesulfonamide]	+	+	+	− (gel)				
O=[N+]([O-])c1ccc(Oc2c(Cl)cc(S(=O)(=O)Nc3ccc4cc[nH]c4c3)cc2Cl)c(Cl)c1 [Example 172, 3,5-dichloro-4-(2-chloro-4-nitrophenoxy)-N-1H-indol-6-ylbenzenesulfonamide]	+	+		+ (gel)	+	+		
O=S(=O)(Nc1cc(Cl)ccc1Cl)c1ccc(Oc2ncc(C(F)(F)F)cc2Cl)cc1 [Example 253, 4-{[3-chloro-5-(trifluoromethyl)pyridin-2-yl]oxy}-N-(2,5-dichlorophenyl)benzene-sulfonamide]	+	+	+				+	+
NC(=O)c1ccccc1NS(=O)(=O)c1cc(Cl)c(Oc2ccc([N+](=O)[O-])cc2Cl)c(Cl)c1 [Example 193, 2-({[3,5-dichloro-4-(2-chloro-4-nitrophenoxy)phenyl]sulfonyl}amino)benzamide]				− (gel)				
O=S(=O)(Nc1cc(C(F)(F)F)ccc1Cl)c1ccc(Oc2ncc(C(F)(F)F)cc2Cl)cc1 [Compound 254, N-[2-chloro-5-(trifluoromethyl)phenyl]-4-{[3-chloro-5-(trifluoromethyl)pyridin-2-yl]oxy}benzenesulfonamide]	+	+	+				+	+
O=[N+]([O-])c1ccc(Oc2c(Cl)cc(S(=O)(=O)Nc3cc(C(F)(F)F)ccc3Cl)cc2Cl)c(Cl)c1 [Compound 243, 3,5-dichloro-4-(2-chloro-4-nitrophenoxy)-N-(2-chloro-5-(trifluoromethyl)phenyl]benzenesulfonamide]	+	+	+				+	+
O=[N+]([O-])c1ccc(Oc2c(Cl)cc(S(=O)(=O)Nc3ccc(Cl)c(Cl)c3)cc2Cl)c(Cl)c1 [Compound 167, 3,5-dichloro-4-(2-chloro-4-nitrophenoxy)-N-(3,4-dichlorophenyl)benzenesulfonamide]	+	+			+	+	+	+
O=[N+]([O-])c1ccc(Oc2c(Cl)cc(S(=O)(=O)NCCc3ccc(O)cc3)cc2Cl)c(Cl)c1 [Example 223, 3,5-dichloro-4-(2-chloro-4-nitrophenoxy)-N-[2-(4-hydroxyphenyl)ethyl]benzene-sulfonamide]				− (gel)	−	−		
O=[N+]([O-])c1ccc(Oc2c(Cl)cc(S(=O)(=O)Nc3ccncc3)cc2Cl)c(Cl)c1 [Example 221, 3,5-dichloro-4-(2-chloro-4-nitrophenoxy)-N-pyridin-4-ylbenzenesulfonamide]	−	−		− (gel)	−	−		
